How the values were obtained:
writhing = writhing test on mice (analgesic effect); format: in vivo; conditions: Mus musculus, po, per os, dosis that reduces the number of writhings by 50% vs control
Protocol: (§1) The ED50 levels were determined graphically on probability paper. In the writhing test, the ED50 is defined to be the dosis of active ingredient that reduces the number of writhings by 50% as compared with a control group. In the adjuvant arthritis test, the effect was judged by observing the inhibition in the secondary lesions, which the animals inflicted to their ears, paws and tails, on the 17th day after the administration of the active substance compositions had started, in comparison with a control group. ED50 is considered the dosis that reduces these lesions by 50% as compared to those of the control group.

adjuvant arthritis = adjuvant arthritis in rats (anti-inflammatory effect); format: in vivo; conditions: Rattus norvegicus, po, 408 h, per os, 50% reduction of secondary lesions on the 17th day vs control
Protocol: as §1

in vivo [1] = conditions: mouse, po, per os, N.M.R.I. mice, observation time 7 days
in vivo [2] = conditions: rat, po, per os, observation time 7 days
Text: ^1) Limits of confidence for p = 0.05 in brackets
^2) Sprague-Dawley rats used as test animals

in vivo [3] = assay: in vivo; set-up: species or system male rats of a Sprague-Dawley strain; conditions: rat, po
Protocol: To examine the ulcerogenic activity, the substances to be tested were orally administered to male rats of a Sprague-Dawley strain, that had been kept unfed for 18 hours, and 24 hours after administration, the gastrointestinal tract of the animals was inspected for ulcers.

| SMILES | ED50 (writhing) [mg/kg] | ED50 (adjuvant arthritis) [mg/kg] | LD50 at 168 h (in vivo [1]) [mg/kg] | LD50 at 168 h (in vivo [2]; female Wistar-Lewis rats) [mg/kg] | NOAEL at 24 h (in vivo [3]) [mg/kg] | LD50 at 168 h (in vivo [2]; Sprague-Dawley rats used as test animals (footnote 2)) [mg/kg] |
| --- | --- | --- | --- | --- | --- | --- |
| CC(O)=C(C#N)C(=O)Nc1cccc(Cl)c1 [No. 2] | ~25 | 22 | 585 | 445 | 200 |  |
| CCCCC1C(=O)N(c2ccccc2)N(c2ccccc2)C1=O [Phenylbutazone, phenylbutazone, reference compound] | 60 to 100 | 37 |  |  | 63 |  |
| CC(O)=C(C#N)C(=O)Nc1cccc(C(F)(F)F)c1 [compound 11] | 25 | 28 | 660 |  | 100 | 670 |
